Laboratory results reported in patent publication EP4696689A1, “SALT FORM AND CRYSTAL FORM OF CHIRAL HETEROCYCLIC COMPOUND HAVING HEDGEHOG PATHWAY ANTAGONIST ACTIVITY” (Suzhou Kintor Pharmaceuticals, Inc., priority 2023, dated 2024).

Assays:
[1] = pharmacokinetic study in mice; settings: same dose, intragastric administration
Gli1 Gene = test: Gli1 mRNA expression in tumor tissues (RT-qPCR), Shh signaling pathway analysis; assay type: in vivo, CB-17/SCID mice; settings: for mRNA Expression Level of Glil Gene: tumor tissue 2 hours after last administration, GAPDH internal reference
Excerpt: Table 7-1 The Grouping and Drug Administration Plan
Primary tumor cells were extracted from Math1-Cre/Ptch1 ^C/C mice with spontaneous medulloblastoma and subcutaneously inoculated into CB-17/SCID mice to establish a xenograft model of medulloblastoma.
CB-17/SCID mice were subcutaneously injected with primary extracted medulloblastoma cells. After 3-4 weeks, a subset of mice developed tumors with volumes ranging from 150 to 300 mm^3.
From these mice, 25 tumor-bearing mice with uniform tumor sizes (with CV < 30%, CV = SD/Mean) were selected and randomly divided into 5 experimental groups (Vehicle, GDC-0449-10 mg/kg, Compound A-10 mg/kg, Compound A-3 mg/kg, Compound A-1 mg/kg) according to Table 2. Each group consisted of 5 mice per cage. Administration began on the day after grouping. The administration period was 3 days, with a frequency of BID. Tumor tissues were collected 2 hours after the last administration, and the mRNA expression level of the Glil gene in the tumor tissues was analyzed by RT-qPCR.
The tumor tissues were lysed by RNAiso Plius (TaKaRa, 108-95-2) to extractand RNA was then extracted using chloroform extraction and isopropanol precipitation methods. Subsequently, the mRNA level of the Glil gene was detected using a real-time fluorescence quantitative PCR instrument (ABI 7500), with GAPDH serving as the internal reference for quantitative analysis.
Experimental data in all tables are presented as "mean ± standard deviation" with error bars in figures representing standard error of the mean (SEM). Student's t-test was used to compare statistical differences in Glil gene mRNA expression levels in tumor tissues among treatment groups. All data were analyzed using GraphPad Prism 5.0. P-value <0.05 was considered statistically significant. ***, P<0.001; ##, P<0.01.
Glil is a target gene of the Hedgehog signaling pathway, and its mRNA expression level reflects the activation status of the hedgehog signaling pathway.

## Cc1cnc(-c2cc(N3CCc4nc(N5CCC(O)CC5)ncc4[C@H]3C)ncc2Cl)c(C)c1 [Fumarate crystal form F]
[1]
  Cmax higher than that of the positive drug GDC-0449: about 1 fold
Gli1 Gene; 1 mg/kg i.g. BID × 3 days
  mRNA Expression Level of Glil Gene: 0.609 ± 0.140
Gli1 Gene; 3 mg/kg i.g. BID × 3 days
  mRNA Expression Level of Glil Gene: 0.359 ± 0.113
Gli1 Gene; 10 mg/kg i.g. BID × 3 days
  mRNA Expression Level of Glil Gene: 0.045 ± 0.035
Gli1 Gene; high-dose group (10 mg/kg)
  inhibition of Hedgehog signaling compared with the high-dose group of GDC-0449 (10 mg/kg): significantly stronger inhibition
